Measurements from paper PMC3479967 (Evidence-based Complementary and Alternative Medicine : eCAM, 2012).

Tests used:
UGT1A4 = target: T1, UGT1A4 (Homo sapiens, UniProt P22310); experiment: Inhibition of recombinant UGT1A4 activity (TFP glucuronidation); type: biochemical; conditions: recombinant UGT1A4
T1 construct: purchased BD Gentest Corp. (Woburn, MA, USA); host or cells: baculovirus-infected insect cells
T1 sequence (P22310 29-534): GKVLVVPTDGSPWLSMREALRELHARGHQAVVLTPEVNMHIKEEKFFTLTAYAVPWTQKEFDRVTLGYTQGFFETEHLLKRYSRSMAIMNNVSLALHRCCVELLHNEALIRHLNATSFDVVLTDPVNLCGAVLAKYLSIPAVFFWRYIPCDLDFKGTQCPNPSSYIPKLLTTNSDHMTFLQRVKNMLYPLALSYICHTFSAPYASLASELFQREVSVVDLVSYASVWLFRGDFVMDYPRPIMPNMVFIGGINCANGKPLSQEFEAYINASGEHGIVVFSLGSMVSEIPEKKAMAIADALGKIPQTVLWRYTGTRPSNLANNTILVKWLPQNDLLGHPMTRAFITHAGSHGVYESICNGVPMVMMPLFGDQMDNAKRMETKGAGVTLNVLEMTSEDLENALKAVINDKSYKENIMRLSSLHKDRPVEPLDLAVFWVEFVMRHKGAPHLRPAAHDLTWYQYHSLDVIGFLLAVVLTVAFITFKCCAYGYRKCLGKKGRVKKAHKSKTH
Procedure: TFP was used as the substrate for UGT1A4. Trifluoperazine glucuronide (TFPG) formation was measured using a modification of the method reported. […] Reactions were initiated by the addition of UDPGA and incubations were performed at 37°C in a shaking water bath for 20 min. Incubations were terminated by the addition of 4% acetic acid/96% methanol (0.2 mL) and then centrifuged at 20,500 ×g for 15 min. A 40 μL aliquot of the supernatant fraction was injected into the HPLC column. […] A gradient mobile phase consisting initially of 30 : 70, mobile phase A (acetonitrile) verse mobile phase B (0.5% formic acid/water) was brought to a composition of 90 : 10 in 10 min which was held for 7 min, all at a flow rate of 1 mL/min. Column eluant was monitored by UV absorbance 256 nm. […] The negative controls are the incubation without UDPGA.

UGT1A7 = target: T2, UGT1A7 (Homo sapiens, UniProt Q9HAW7); experiment: Inhibition of recombinant UGT1A7 activity (4-MU glucuronidation); conditions: recombinant UGT1A7
T2 sequence (Q9HAW7 26-530): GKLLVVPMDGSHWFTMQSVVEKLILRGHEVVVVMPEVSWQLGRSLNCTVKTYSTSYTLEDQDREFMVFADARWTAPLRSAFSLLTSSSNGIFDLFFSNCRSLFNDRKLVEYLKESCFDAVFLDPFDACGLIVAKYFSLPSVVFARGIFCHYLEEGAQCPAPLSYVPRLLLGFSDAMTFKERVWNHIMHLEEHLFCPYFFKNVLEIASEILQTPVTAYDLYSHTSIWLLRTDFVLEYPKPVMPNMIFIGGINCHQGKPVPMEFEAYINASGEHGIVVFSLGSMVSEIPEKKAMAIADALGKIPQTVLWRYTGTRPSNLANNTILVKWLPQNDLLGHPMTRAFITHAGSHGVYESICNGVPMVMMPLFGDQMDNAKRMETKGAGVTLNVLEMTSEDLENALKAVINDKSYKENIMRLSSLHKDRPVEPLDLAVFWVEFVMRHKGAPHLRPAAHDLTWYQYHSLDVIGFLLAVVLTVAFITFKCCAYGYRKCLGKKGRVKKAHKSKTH
Procedure: (§1) A panel of recombinant human UGT supersomes (UGT1A1, UGT1A3, UGT1A4, UGT1A6, UGT1A7, UGT1A8, UGT1A9, UGT1A10, UGT2B4, UGT2B7, UGT2B15, and UGT2B17) expressed in baculovirus-infected insect cells were purchased from BD Gentest Corp. (Woburn, MA, USA).
(§2) 4-MU, a nonselective substrate of UGTs, was used as probe substrate for all UGTs except UGT1A4. Incubations with each individual enzyme were conducted using conditions previously described. There was a 5 min preincubation step at 37°C before the reaction was started by addition of UDPGA. The incubation mixtures were then centrifuged at 20,500 ×g for 15 min to obtain the supernatant. Aliquots (20 μL) were then analyzed by HPLC. The HPLC system (SHIMADZU, Kyoto, Japan) consisted of an SCL-10A system controller, two LC-10AT pumps, a SIL-10A auto injector, and a SPD-10AVP UV detector. Chromatographic separation was achieved using a Kromasil ODS column (4.6 × 150 mm I.D., 5 μm particle size) at a flow rate of 1 mL/min and UV detection at 316 nm. The mobile phase consisted of 10 mM KH2PO4, pH 2.7 (A) and acetonitrile (B). The following gradient was applied at a flow rate of 1 mL/min: 0–4 min 80% A and 20% B, 4.1–8 min 50% A and 50% B, 8.1–12 min, 30% A and 70% B. All experiments were performed in two independent experiments in duplicate.
(§3) A typical incubation mixture contained recombinant human UGTs, 5 mM MgCl2, 5 mM UDPGA, 50 μg/mg protein alamethicin, 50 mM Tris-HCl buffer (pH 7.4), and various probe substrates of UGTs in the absence or presence of different concentrations of inhibitors. […] The final concentration of DMSO in the incubation system was 1% (v/v). […] Known UGT inhibitors were used as positive controls: diclofenac for UGT1A1, UGT1A6, UGT1A7, and UGT1A9; androsterone for UGT1A3, UGT2B7, and UGT2B15, phenylbutazone for UGT1A8 and UGT1A10, and hecogenin for UGT1A4, respectively. There is no positive control reported available for UGT2B4 and UGT2B17. The negative controls are the incubation without UDPGA. […] The final concentration of DMSO in the incubation system was 1% (v/v). […] There was a 5 min preincubation step at 37°C before the reaction was started by the addition of UDPGA. Incubation times were 120 min for UGT1A1, UGT1A10, UGT2B4, UGT2B15, and UGT2B17, 75 min for UGT1A3, and 30 min for UGT1A4, UGT1A6, UGT1A7, UGT1A8, and UGT1A9. The reactions were quenched by adding 100 μL acetonitrile and internal standard. The incubation mixtures were then centrifuged at 20,500 ×g for 15 min to obtain the supernatant. An aliquot of the supernatant was used for HPLC analysis as described above. All experiments were performed in two independent experiments in duplicate.
Inhibition data from experiments were graphically represented by Dixon plots. K i values were calculated by nonlinear regression using the equations for competitive inhibition (1), noncompetitive inhibition (2), or mixed inhibition (3), [22] (1) v =VmaxS/Km(1+(I/Ki))+S, (2) v =VmaxS/(Km+S)(1+(I/Ki)), (3) v =VmaxS/Km (1+(I/Ki))+S(1+(I/αKi)), where v is the velocity of the reaction; S and I are the substrate and inhibitor concentrations, respectively; K i is the inhibition constant describing the affinity of the inhibitor for the enzyme; K m is the substrate concentration at half of the maximum velocity (V max) of the reaction; α reflects the effect of inhibitor on the affinity of the enzyme for its substrate. The type of inhibition was determined from the enzyme inhibition models. Goodness of fit to kinetic and inhibition models was assessed from the F statistic, r ^2 values, parameter standard error estimates, and 95% confidence intervals. Kinetic constants are reported as the mean value ± standard error of the parameter estimate.

UGT2B7 = target: T3, UGT2B7 (Homo sapiens, UniProt P16662); experiment: Inhibition of recombinant UGT2B7 activity (4-MU glucuronidation)
T3 sequence (P16662 24-529): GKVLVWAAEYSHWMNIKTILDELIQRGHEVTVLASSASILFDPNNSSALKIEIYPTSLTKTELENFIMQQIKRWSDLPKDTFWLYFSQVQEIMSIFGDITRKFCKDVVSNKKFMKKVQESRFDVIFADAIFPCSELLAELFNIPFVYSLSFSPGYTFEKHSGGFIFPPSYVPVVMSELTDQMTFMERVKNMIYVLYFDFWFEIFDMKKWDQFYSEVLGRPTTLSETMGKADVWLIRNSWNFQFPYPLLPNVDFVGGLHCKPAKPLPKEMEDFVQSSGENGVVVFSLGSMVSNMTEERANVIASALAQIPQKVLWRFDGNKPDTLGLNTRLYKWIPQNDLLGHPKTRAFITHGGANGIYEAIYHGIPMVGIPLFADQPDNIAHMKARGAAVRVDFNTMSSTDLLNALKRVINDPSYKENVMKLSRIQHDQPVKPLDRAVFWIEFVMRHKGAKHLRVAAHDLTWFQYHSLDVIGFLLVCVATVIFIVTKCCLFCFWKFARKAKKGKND
Procedure: as §1, §2, §3
Inhibition data from experiments were graphically represented by Dixon plots. K i values were calculated by nonlinear regression using the equations for competitive inhibition (1), noncompetitive inhibition (2), or mixed inhibition (3), [22] […] The type of inhibition was determined from the enzyme inhibition models. Goodness of fit to kinetic and inhibition models was assessed from the F statistic, r ^2 values, parameter standard error estimates, and 95% confidence intervals. […]

With Icariside II the “Inhibition type against UGT1A4” value (UGT1A4) was “competitive”, the “Inhibition type against UGT1A7” value (UGT1A7) was “noncompetitive” and the “Inhibition type against UGT2B7” value (UGT2B7; recombinant UGT2B7) was “mixed”. For the same substance, the “α of mixed inhibition against UGT2B7” value (UGT2B7; recombinant UGT2B7, mixed inhibition model) was 3.3.
